Results reported in patent US9492471B2, “Methods of treating a disease or disorder associated with Bruton'S Tyrosine Kinase” (Celgene Avilomics Research, Inc., priority 2013, dated 2016).
Like-named read-outs stand apart in the source and are kept apart here.

Experiments:
Assay in all cases: HotSpot kinase profiling
Format in all cases: biochemical
MRCKa/CDC42BPA = target: T1, MRCKa/CDC42BPA (Homo sapiens, UniProt Q5VT25)
T1 construct: purchased Reaction Biology Corp
Summary of the method: (§1)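 Radio-isotope P81 filtration format. Substrate + required cofactors in reaction buffer, kinase added, 2 h RT. Stop, wash with 0.1% phosphoric acid, detect. % inhibition vs DMSO; mean of duplicates where repeated.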

CTK/MATK = target: T2, CTK/MATK (Homo sapiens, UniProt P42679)
T2 construct: purchased Reaction Biology Corp
T2 sequence (P42679 1-507): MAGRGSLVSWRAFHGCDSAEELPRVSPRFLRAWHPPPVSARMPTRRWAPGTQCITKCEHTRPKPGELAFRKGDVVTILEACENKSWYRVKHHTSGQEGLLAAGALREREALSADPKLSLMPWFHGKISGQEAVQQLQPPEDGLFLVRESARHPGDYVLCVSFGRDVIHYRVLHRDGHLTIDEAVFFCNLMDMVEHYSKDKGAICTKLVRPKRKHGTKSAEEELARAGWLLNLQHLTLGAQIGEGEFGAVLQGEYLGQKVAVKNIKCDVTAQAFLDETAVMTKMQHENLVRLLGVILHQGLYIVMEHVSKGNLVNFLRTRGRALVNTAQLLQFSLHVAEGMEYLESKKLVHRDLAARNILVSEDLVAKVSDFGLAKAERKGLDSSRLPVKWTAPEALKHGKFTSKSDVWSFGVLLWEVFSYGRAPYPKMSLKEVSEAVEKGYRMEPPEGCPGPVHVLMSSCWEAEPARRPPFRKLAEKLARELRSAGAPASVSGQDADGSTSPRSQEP
Summary of the method: as §1

EPHA1 = target: T3, EPHA1 (Homo sapiens, UniProt P21709)
T3 construct: purchased Reaction Biology Corp
T3 sequence (P21709 26-976): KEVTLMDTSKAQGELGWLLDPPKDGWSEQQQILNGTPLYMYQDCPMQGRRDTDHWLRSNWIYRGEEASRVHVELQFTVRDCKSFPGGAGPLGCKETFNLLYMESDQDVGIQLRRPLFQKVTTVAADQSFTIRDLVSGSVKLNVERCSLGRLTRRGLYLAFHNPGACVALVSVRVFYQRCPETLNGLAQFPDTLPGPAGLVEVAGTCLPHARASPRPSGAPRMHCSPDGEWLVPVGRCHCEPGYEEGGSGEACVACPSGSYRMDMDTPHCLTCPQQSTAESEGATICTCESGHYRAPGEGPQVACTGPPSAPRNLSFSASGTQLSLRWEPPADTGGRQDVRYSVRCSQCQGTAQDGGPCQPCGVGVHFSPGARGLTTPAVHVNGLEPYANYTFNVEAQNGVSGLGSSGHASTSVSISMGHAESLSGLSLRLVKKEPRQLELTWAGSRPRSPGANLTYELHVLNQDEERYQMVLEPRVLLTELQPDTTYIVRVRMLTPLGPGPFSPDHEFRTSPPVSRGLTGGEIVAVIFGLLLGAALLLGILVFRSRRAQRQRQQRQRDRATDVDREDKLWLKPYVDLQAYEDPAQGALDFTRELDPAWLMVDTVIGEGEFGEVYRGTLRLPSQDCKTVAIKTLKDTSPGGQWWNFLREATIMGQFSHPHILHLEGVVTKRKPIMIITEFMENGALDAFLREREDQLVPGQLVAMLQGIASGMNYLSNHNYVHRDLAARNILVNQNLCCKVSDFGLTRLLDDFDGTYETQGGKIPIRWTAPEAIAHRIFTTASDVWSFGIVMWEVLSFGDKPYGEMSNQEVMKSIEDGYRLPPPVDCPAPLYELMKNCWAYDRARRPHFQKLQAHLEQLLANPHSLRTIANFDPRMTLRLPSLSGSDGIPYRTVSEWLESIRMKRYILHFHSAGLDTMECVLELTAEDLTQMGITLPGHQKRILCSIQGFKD
Summary of the method: as §1

CLK2 = target: T4, CLK2 (Homo sapiens, UniProt P49760)
T4 construct: purchased Reaction Biology Corp
Summary of the method: as §1

CLK1 = target: T5, CLK1 (Homo sapiens, UniProt P49759)
T5 construct: purchased Reaction Biology Corp
Summary of the method: as §1

MARK3 = target: T6, MARK3 (Homo sapiens, UniProt P27448)
T6 construct: purchased Reaction Biology Corp
Summary of the method: as §1

ERBB4/HER4 = target: T7, ERBB4/HER4 (Homo sapiens, UniProt Q15303)
T7 construct: purchased Reaction Biology Corp
Summary of the method: as §1

c-Src = target: T8, c-Src (Homo sapiens, UniProt P12931)
T8 construct: purchased Reaction Biology Corp
Summary of the method: as §1

[1] = read-out: % Enzyme Activity (relative to DMSO controls) Run 1
[2] = read-out: % Enzyme Activity (relative to DMSO controls) Run 2

T5 sequence (P49759 whole entry): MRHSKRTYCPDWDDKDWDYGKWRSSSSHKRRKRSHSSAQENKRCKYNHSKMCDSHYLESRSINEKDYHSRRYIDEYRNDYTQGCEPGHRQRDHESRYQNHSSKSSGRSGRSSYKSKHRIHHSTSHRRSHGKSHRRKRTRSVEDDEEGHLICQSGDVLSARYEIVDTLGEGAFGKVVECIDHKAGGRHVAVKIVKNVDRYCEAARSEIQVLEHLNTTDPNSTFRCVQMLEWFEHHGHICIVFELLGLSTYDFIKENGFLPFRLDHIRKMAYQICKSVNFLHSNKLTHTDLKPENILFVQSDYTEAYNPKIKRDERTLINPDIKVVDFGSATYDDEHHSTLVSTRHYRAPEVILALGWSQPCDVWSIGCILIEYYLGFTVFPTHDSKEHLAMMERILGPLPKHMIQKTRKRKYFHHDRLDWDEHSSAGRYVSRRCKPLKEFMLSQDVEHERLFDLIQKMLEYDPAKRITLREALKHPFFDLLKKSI
T6 sequence (P27448 whole entry): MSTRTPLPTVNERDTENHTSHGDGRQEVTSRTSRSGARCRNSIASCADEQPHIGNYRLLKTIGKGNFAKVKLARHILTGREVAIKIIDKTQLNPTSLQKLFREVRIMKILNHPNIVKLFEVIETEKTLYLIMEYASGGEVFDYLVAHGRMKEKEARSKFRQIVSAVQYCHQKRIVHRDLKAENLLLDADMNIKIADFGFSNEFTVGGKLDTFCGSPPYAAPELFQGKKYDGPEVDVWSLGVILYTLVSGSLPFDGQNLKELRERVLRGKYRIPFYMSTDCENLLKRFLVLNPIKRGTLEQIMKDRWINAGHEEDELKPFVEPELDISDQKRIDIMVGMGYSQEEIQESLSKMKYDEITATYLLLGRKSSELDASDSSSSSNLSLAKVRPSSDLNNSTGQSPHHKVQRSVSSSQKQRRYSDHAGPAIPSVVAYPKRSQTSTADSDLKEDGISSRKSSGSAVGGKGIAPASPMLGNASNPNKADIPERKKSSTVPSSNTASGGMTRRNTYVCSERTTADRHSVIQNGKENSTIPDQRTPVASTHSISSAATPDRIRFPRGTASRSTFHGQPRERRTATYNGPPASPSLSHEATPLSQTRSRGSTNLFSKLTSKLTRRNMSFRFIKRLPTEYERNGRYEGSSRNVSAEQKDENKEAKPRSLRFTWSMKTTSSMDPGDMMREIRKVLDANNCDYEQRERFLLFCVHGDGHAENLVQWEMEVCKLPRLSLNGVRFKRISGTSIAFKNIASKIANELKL
T8 sequence (P12931 whole entry): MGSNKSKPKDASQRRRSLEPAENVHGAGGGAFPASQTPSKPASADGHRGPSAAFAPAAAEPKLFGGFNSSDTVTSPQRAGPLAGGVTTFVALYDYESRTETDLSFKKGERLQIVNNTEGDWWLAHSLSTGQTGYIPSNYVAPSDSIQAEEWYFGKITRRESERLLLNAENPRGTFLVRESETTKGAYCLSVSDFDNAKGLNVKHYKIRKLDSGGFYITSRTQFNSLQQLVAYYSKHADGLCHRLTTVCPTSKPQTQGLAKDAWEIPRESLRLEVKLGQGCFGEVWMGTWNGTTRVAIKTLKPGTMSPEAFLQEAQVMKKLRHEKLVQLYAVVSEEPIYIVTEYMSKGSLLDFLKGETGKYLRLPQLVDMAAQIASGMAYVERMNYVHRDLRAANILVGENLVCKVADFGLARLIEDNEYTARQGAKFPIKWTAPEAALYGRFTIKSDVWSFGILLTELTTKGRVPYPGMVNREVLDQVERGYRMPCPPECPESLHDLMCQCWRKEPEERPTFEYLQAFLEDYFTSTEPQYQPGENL
T7 sequence (Q15303 26-1308): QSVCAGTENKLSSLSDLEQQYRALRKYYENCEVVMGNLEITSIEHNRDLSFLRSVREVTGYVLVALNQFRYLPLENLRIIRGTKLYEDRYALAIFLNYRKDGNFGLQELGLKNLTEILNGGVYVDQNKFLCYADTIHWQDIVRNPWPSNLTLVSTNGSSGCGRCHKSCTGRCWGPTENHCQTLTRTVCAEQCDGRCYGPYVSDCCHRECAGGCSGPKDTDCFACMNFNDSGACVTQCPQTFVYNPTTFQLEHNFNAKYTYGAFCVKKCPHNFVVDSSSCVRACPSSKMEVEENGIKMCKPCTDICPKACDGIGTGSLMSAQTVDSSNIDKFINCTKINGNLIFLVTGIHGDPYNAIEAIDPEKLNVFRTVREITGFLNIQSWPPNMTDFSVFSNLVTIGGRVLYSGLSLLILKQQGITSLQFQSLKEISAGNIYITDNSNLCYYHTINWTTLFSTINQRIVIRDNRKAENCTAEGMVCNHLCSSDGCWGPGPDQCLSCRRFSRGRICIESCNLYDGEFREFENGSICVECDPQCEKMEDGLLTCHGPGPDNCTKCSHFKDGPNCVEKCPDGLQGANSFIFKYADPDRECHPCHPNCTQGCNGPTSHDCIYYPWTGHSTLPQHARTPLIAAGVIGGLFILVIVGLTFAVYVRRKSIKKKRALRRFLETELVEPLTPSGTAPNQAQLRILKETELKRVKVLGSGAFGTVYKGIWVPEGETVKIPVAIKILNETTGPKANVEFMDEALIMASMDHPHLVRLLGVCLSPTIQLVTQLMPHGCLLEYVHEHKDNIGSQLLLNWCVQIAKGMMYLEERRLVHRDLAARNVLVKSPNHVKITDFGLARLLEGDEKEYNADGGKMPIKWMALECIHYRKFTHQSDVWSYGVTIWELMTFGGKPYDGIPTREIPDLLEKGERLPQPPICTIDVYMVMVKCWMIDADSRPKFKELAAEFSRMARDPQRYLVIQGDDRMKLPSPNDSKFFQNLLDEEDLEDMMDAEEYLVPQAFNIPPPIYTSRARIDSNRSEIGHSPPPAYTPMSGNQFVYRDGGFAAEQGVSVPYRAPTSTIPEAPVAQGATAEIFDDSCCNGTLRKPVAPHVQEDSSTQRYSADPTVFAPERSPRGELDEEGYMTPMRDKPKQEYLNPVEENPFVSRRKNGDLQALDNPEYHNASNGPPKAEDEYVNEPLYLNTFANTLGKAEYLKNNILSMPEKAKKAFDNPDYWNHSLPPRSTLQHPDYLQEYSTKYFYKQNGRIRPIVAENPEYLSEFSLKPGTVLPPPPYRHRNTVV
T1 sequence (Q5VT25 whole entry): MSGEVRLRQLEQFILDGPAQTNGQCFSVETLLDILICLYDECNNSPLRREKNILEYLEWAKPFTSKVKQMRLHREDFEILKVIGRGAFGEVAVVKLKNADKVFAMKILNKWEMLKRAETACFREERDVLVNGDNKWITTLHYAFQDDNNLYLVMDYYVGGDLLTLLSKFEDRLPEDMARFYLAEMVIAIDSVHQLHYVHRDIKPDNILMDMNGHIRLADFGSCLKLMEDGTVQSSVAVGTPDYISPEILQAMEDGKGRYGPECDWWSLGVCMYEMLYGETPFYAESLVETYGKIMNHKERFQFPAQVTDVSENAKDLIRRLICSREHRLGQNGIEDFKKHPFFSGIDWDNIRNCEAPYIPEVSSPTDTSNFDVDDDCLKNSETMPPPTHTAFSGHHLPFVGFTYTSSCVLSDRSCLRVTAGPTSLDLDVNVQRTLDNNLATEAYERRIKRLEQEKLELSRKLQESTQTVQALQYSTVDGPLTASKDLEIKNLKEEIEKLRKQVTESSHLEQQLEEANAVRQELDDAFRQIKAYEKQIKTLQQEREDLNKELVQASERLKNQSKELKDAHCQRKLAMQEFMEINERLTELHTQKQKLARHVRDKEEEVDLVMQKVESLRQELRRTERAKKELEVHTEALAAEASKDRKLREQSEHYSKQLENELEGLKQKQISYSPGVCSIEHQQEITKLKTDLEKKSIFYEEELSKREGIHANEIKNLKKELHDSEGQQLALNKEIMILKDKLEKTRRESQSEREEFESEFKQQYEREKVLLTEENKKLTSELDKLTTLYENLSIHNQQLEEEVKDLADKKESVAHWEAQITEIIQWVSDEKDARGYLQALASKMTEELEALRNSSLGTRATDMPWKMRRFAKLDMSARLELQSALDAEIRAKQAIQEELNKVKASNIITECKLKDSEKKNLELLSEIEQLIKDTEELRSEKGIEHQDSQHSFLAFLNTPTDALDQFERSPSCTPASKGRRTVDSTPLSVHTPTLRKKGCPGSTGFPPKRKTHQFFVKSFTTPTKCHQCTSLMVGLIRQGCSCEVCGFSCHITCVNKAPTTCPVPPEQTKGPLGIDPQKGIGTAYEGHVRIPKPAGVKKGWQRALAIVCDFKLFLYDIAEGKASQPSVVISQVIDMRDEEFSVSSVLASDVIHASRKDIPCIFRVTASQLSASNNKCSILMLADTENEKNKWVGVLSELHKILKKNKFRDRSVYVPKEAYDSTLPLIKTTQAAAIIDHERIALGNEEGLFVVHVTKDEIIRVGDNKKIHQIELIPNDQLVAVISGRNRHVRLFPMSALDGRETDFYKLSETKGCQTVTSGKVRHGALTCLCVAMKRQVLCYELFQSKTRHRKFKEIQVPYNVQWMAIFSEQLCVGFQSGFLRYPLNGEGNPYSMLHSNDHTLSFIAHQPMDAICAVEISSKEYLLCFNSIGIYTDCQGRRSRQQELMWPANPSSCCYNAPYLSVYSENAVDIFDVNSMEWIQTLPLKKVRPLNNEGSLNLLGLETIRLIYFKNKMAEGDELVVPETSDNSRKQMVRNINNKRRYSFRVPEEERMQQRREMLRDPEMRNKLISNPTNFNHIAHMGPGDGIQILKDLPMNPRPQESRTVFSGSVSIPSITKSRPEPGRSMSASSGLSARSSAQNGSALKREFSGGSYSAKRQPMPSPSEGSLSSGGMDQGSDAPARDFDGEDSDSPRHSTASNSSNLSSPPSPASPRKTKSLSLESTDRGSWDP

In the case of `C=CC(=O)Nc1cccc(Nc2nc(Nc3ccc(OCCOC)c(F)c3)ncc2F)c1` [Compound 2], the inhibition at 3 µM (MRCKa/CDC42BPA) was -14.3%, the remaining activity at 3 µM (MRCKa/CDC42BPA; [1]) was 114% and the remaining activity at 3 µM (MRCKa/CDC42BPA; [2]) was 115%. It also gave an inhibition at 3 µM (CTK/MATK) of -3.03%, a remaining activity at 3 µM (CTK/MATK; [1]) of 102% and a remaining activity at 3 µM (CTK/MATK; [2]) of 104%. For the same compound, the inhibition at 3 µM (EPHA1) was -0.24%, the remaining activity at 3 µM (EPHA1; [1]) was 99.5% and the remaining activity at 3 µM (EPHA1; [2]) was 101%. The inhibition at 3 µM (CLK2) was 49.6%, the remaining activity at 3 µM (CLK2; [1]) was 50.2% and the remaining activity at 3 µM (CLK2; [2]) was 50.6%. It also gave an inhibition at 3 µM (CLK1) of 24.1%, a remaining activity at 3 µM (CLK1; [1]) of 74.4% and a remaining activity at 3 µM (CLK1; [2]) of 77.4%. For the same compound, the inhibition at 3 µM (MARK3) was -0.92%, the remaining activity at 3 µM (MARK3; [1]) was 101% and the remaining activity at 3 µM (MARK3; [2]) was 100%. For the same compound, the inhibition at 3 µM (ERBB4/HER4) was 91.3%, the remaining activity at 3 µM (ERBB4/HER4; [1]) was 9.15% and the remaining activity at 3 µM (ERBB4/HER4; [2]) was 8.32%. The inhibition at 3 µM (c-Src) was 72%, the remaining activity at 3 µM (c-Src; [1]) was 28.2% and the remaining activity at 3 µM (c-Src; [2]) was 27.9%.
